{"source": "patent US20180071317A1", "about": "“USE OF AGENTS THAT ALTER THE PERITUMORAL ENVIRONMENT FOR THE TREATMENT OF CANCER” (SERVICIO ANDALUZ DE SALUD, priority 2011, published 2018)", "key": {"[1]": {"system": "human primary macrophages (PHM)", "experiment": "Marker expression (immunohistochemistry) in human primary macrophages with SP alone or with NK1 antagonists", "type": "cell-based", "conditions": "SP 1 μM + antagonist 1 μM; 48 h"}, "[2]": {"system": "fibroblasts (PHF) co-cultured with tumor cells of human endometrial carcinoma (AN3-CA)", "experiment": "Marker expression (IHC) in PHF co-cultured with AN3-CA tumor cells;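 further: cultured in fresh healthy-donor blood plasma with added antibiotic-antimycotic, run in six replicates, values give percent of fibroblasts positive for each marker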", "type": "cell-based", "conditions": "co-culture with AN3-CA; SP 1 μM + antagonist 1 μM; 48 h"}, "[3]": {"system": "fibroblasts (PHF) co-cultured with human glioma tumor cells (GAMG)", "experiment": "Marker expression (IHC) in PHF co-cultured with GAMG tumor cells;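 further: percentage of PHF fibroblasts positive for each marker, cultured in fresh plasma from a healthy donor, six replicates, with fibroblasts cultured alone as reference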", "type": "cell-based", "conditions": "co-culture with GAMG; SP 1 μM + antagonist 1 μM; 48 h"}, "[4]": {"system": "fibroblasts (PHF) co-cultivated with tumor cell lymphoblastic leukemia B (SDI)", "experiment": "Marker expression (IHC) in PHF co-cultured with SDI tumor cells", "type": "cell-based, human", "conditions": "PHF co-cultivated with SDI + SP + NK1 antagonist"}, "[5]": {"system": "macrophages in co-culture with cells isolated from primary human tumors", "experiment": "Marker expression (IHC) in macrophages co-cultured with primary human tumor cells (colon, breast, ovarian, lung carcinoma, melanoma);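 further: macrophages came from pleural or peritoneal washings of the patient who also supplied the tumor cells, and both were co-cultured on fresh blood plasma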", "type": "cell-based", "conditions": "SP 1 μM + antagonist 1 μM"}, "[6]": {"system": "tumor cells from primary human tumors (MAP Kinase pathway)", "experiment": "Proliferation of primary human tumor cells (ERK modified or unchanged) alone or with stromal fibroblasts", "type": "cell-based", "conditions": "antagonist 1 μM"}, "[7]": {"system": "tumor cells from primary human tumors (PI3 Kinase pathway)", "experiment": "Proliferation of primary human tumor cells (AKT modified or unchanged) alone or with stromal fibroblasts", "type": "cell-based", "conditions": "antagonist 1 μM"}, "[8]": {"system": "tumor cells from primary human tumors (MAP Kinase pathway)", "experiment": "Proliferation of primary human tumor cells (ERK modified or unchanged) alone or with macrophages", "type": "cell-based", "conditions": "antagonist 1 μM"}, "[9]": {"system": "tumor cells from primary human tumors (PI3 Kinase pathway)", "experiment": "Proliferation of primary human tumor cells (AKT modified or unchanged) alone or with macrophages", "type": "cell-based", "conditions": "antagonist 1 μM"}, "[10]": {"system": "primary human tumor cells", "experiment": "Proliferation of primary human tumor cells with low dose Aprepitant alone or with fibroblasts, leukocytes or macrophages", "conditions": "low dose (5 nanomolar)"}, "[11]": {"conditions": "co-culture with cells isolated from breast carcinoma"}, "[12]": {"conditions": "co-culture with cells isolated from colon carcinoma"}, "[13]": {"conditions": "co-culture with cells isolated from lung carcinoma"}, "[14]": {"conditions": "co-culture with cells isolated from melanoma"}, "[15]": {"conditions": "co-culture with cells isolated from ovarian carcinoma"}, "[16]": {"conditions": "irrespective of MAP Kinases pathway integrity"}}}
{"smiles": "C[C@@H](O[C@H]1OCCN(Cc2n[nH]c(=O)[nH]2)[C@H]1c1ccc(F)cc1)c1cc(C(F)(F)F)cc(C(F)(F)F)c1", "note": "[Aprepitant]", "values": [{"measurement": "macrophages expressing EGF", "setting": "[1]", "result": 0, "unit": "%"}, {"measurement": "macrophages expressing MMP-9", "setting": "[1]", "result": 0, "unit": "%"}, {"measurement": "macrophages expressing VEGF", "setting": "[1]", "result": 0, "unit": "%"}, {"measurement": "PHF cells expressing MMP-3", "setting": "[2]", "result": 0, "unit": "%"}, {"measurement": "PHF cells expressing MMP-7", "setting": "[2]", "result": 0, "unit": "%"}, {"measurement": "PHF cells expressing MMP-9", "setting": "[2]", "result": 0, "unit": "%"}, {"measurement": "PHF cells expressing MMP-11", "setting": "[2]", "result": 0, "unit": "%"}, {"measurement": "PHF cells expressing MMP-13", "setting": "[2]", "result": 0, "unit": "%"}, {"measurement": "PHF cells expressing MMP-14", "setting": "[2]", "result": 0, "unit": "%"}, {"measurement": "PHF cells expressing SPARC", "setting": "[2]", "result": 0, "unit": "%"}, {"measurement": "PHF cells expressing TGF-α", "setting": "[2]", "result": 0, "unit": "%"}, {"measurement": "PHF cells expressing TGF-β1", "setting": "[2]", "result": 0, "unit": "%"}, {"measurement": "PHF cells expressing TGF-β2", "setting": "[2]", "result": 0, "unit": "%"}, {"measurement": "PHF cells expressing TGF-β3", "setting": "[2]", "result": 0, "unit": "%"}, {"measurement": "PHF cells expressing MMP-3", "setting": "[3]", "result": 0, "unit": "%"}, {"measurement": "PHF cells expressing MMP-7", "setting": "[3]", "result": 0, "unit": "%"}, {"measurement": "PHF cells expressing MMP-9", "setting": "[3]", "result": 0, "unit": "%"}, {"measurement": "PHF cells expressing MMP-11", "setting": "[3]", "result": 0, "unit": "%"}, {"measurement": "PHF cells expressing MMP-13", "setting": "[3]", "result": 0, "unit": "%"}, {"measurement": "PHF cells expressing MMP-14", "setting": "[3]", "result": 0, "unit": "%"}, {"measurement": "PHF cells expressing SPARC", "setting": "[3]", "result": 0, "unit": "%"}, {"measurement": "PHF cells expressing TGF-α", "setting": "[3]", "result": 0, "unit": "%"}, {"measurement": "PHF cells expressing TGF-β1", "setting": "[3]", "result": 0, "unit": "%"}, {"measurement": "PHF cells expressing TGF-β2", "setting": "[3]", "result": 0, "unit": "%"}, {"measurement": "PHF cells expressing TGF-β3", "setting": "[3]", "result": 0, "unit": "%"}, {"measurement": "cells expressing MMP-3", "setting": "[4]", "result": 0, "unit": "%"}, {"measurement": "cells expressing MMP-7", "setting": "[4]", "result": 0, "unit": "%"}, {"measurement": "cells expressing MMP-9", "setting": "[4]", "result": 0, "unit": "%"}, {"measurement": "cells expressing MMP-11", "setting": "[4]", "result": 0, "unit": "%"}, {"measurement": "cells expressing MMP-13", "setting": "[4]", "result": 0, "unit": "%"}, {"measurement": "cells expressing MMP-14", "setting": "[4]", "result": 0, "unit": "%"}, {"measurement": "cells expressing SPARC", "setting": "[4]", "result": 0, "unit": "%"}, {"measurement": "cells expressing TGF-α", "setting": "[4]", "result": 0, "unit": "%"}, {"measurement": "cells expressing TGF-β1", "setting": "[4]", "result": 0, "unit": "%"}, {"measurement": "cells expressing TGF-β2", "setting": "[4]", "result": 0, "unit": "%"}, {"measurement": "cells expressing TGF-β3", "setting": "[4]", "result": 0, "unit": "%"}, {"measurement": "Percentage of macrophages which expressed EGF", "setting": "[5]; [11]", "result": 0, "unit": "%"}, {"measurement": "Percentage of macrophages which expressed MMP-9", "setting": "[5]; [11]", "result": 0, "unit": "%"}, {"measurement": "Percentage of macrophages which expressed VEGF", "setting": "[5]; [11]", "result": 0, "unit": "%"}, {"measurement": "Percentage of macrophages which expressed EGF", "setting": "[5]; [12]", "result": 0, "unit": "%"}, {"measurement": "Percentage of macrophages which expressed MMP-9", "setting": "[5]; [12]", "result": 0, "unit": "%"}, {"measurement": "Percentage of macrophages which expressed VEGF", "setting": "[5]; [12]", "result": 0, "unit": "%"}, {"measurement": "Percentage of macrophages which expressed EGF", "setting": "[5]; [13]", "result": 0, "unit": "%"}, {"measurement": "Percentage of macrophages which expressed MMP-9", "setting": "[5]; [13]", "result": 0, "unit": "%"}, {"measurement": "Percentage of macrophages which expressed VEGF", "setting": "[5]; [13]", "result": 0, "unit": "%"}, {"measurement": "Percentage of macrophages which expressed EGF", "setting": "[5]; [14]", "result": 0, "unit": "%"}, {"measurement": "Percentage of macrophages which expressed MMP-9", "setting": "[5]; [14]", "result": 0, "unit": "%"}, {"measurement": "Percentage of macrophages which expressed VEGF", "setting": "[5]; [14]", "result": 0, "unit": "%"}, {"measurement": "Percentage of macrophages which expressed EGF", "setting": "[5]; [15]", "result": 0, "unit": "%"}, {"measurement": "Percentage of macrophages which expressed MMP-9", "setting": "[5]; [15]", "result": 0, "unit": "%"}, {"measurement": "Percentage of macrophages which expressed VEGF", "setting": "[5]; [15]", "result": 0, "unit": "%"}, {"measurement": "growth of primary tumor cells cultured alone (in words)", "setting": "[6]; ERK modified or unchanged", "result": "only inhibits the growth of cells in which the receptor acts NK1 through the MAP Kinases pathway"}, {"measurement": "proliferation of primary tumor cells co-cultured with stromal fibroblasts (in words)", "setting": "[6]; [16]", "result": "produces a proliferation of inhibition of tumor cells"}, {"measurement": "growth of primary tumor cells cultured alone (in words)", "setting": "[7]; AKT modified or unchanged", "result": "only inhibits the growth of cells in which said receptor acts through the PI3 Kinase pathway"}, {"measurement": "proliferation of primary tumor cells co-cultured with stromal fibroblasts (in words)", "setting": "[7]; irrespective of PI3 kinases pathway integrity", "result": "produces a proliferation of inhibition of tumor cells"}, {"measurement": "growth of primary tumor cells cultured alone (in words)", "setting": "[8]; ERK modified or unchanged", "result": "only inhibits the growth of cells in which said receptor acts through the MAP Kinases pathway"}, {"measurement": "proliferation of primary tumor cells co-cultured with macrophages (in words)", "setting": "[8]; [16]", "result": "produces a proliferation of inhibition of tumor cells"}, {"measurement": "growth of primary tumor cells cultured alone (in words)", "setting": "[9]; AKT modified or unchanged", "result": "only inhibits the growth of cells in which said receptor acts through the PI3 Kinase pathway"}, {"measurement": "proliferation of primary tumor cells co-cultured with macrophages (in words)", "setting": "[9]; irrespective of PI3 Kinase pathway integrity", "result": "produces a proliferation of inhibition of tumor cells"}, {"measurement": "growth of primary tumor cells cultured alone (in words)", "setting": "[10]", "result": "does not inhibit the growth of tumor cells at low dose"}, {"measurement": "proliferation of primary tumor cells co-cultured with stromal fibroblasts and immune/inflammatory cells (in words)", "setting": "[10]", "result": "produces a proliferation of inhibition of tumor cells"}]}
